The subject of data set [1] is rat liver microsomes (RLMs). The data set can be described thus: Enzymatic kinetics of axitinib inhibition of buspirone metabolism in RLMs. The format is in vitro ADME.
The test system of data set [2] is buspirone N-dealkylation (formation of 1-PP). The data set can be described thus: in vitro. The following applies: rat, rat liver microsomes.
The subject of data set [3] is buspirone 6′-hydroxylation (formation of 6′-OH buspirone). The data set can be described thus: in vitro. The following applies: rat, rat liver microsomes.
For data set [4] the following is noted: in vivo; cited from earlier work.
Data set [5] is described as follows: Pharmacokinetics of buspirone and metabolites with or without axitinib in rats. It is filed as in vivo, Sprague–Dawley rats. The following applies: increased to % of group A.
Data set [6] in a line: Pharmacokinetic pre-experiment: ritonavir before buspirone in rats. The settings on record: ritonavir (positive inhibitor) administered before buspirone. It is filed as in vivo.

Consider `CNC(=O)c1ccccc1Sc1ccc2c(/C=C/c3ccccn3)n[nH]c2c1` [axitinib], for which the α value is given as 2.139 in data set [1] (buspirone 6′-hydroxylation) and 5.434 in data set [1] (buspirone N-dealkylation).

For the molecule `O=C1CC2(CCCC2)CC(=O)N1CCCCN1CCN(c2ncccn2)CC1` [buspirone, 8-(4-(4-(2-pyrimidinyl)-1-piperizinyl)butyl)-8-azaspiro(4,5)decane-7,9-dione], in data set [2], the Km at 40 min came to 26.3 µM. The Km at 40 min in data set [3] amounted to 23 µM. Moreover, the “absorbed in the alimentary canal” value in data set [4] is given as approximately 100%. For the same molecule, in data set [5], the “AUC(0-t), group B compared with group A” value was found to be 530%; the “Cmax, group B compared with group A” value is given as 420%; the “Tmax, group B compared with group A” value is 150%.

Take `CC(C)c1nc(CN(C)C(=O)N[C@H](C(=O)N[C@@H](Cc2ccccc2)C[C@H](O)[C@H](Cc2ccccc2)NC(=O)OCc2cncs2)C(C)C)cs1` [ritonavir]: in data set [6], the “blood concentrations of buspirone” value is “extremely high blood concentrations of buspirone”; the “symptoms compared with the control” value was “symptoms of inhibition of respiration and near-death”.

Values taken from publication PMC9252588 (Drug Design, Development and Therapy, 2022).
